# Article PMC7935732 (Targeted Oncology, 2021)
# “Also recorded” adds a separate entry of the source.
# How the values were obtained:
# breast cancer = details: larger population, including MONARCH plus; cited from earlier work
# [1] = test system: advanced and/or metastatic cancers; experiment: Antitumor activity; format: in vivo, human
# [2] = Breast cancer treated population, 150 mg (n1 = 10)
# [3] = Breast cancer treated population, 200 mg (n1 = 11)
# [4] = Breast cancer treated population, Total (n1 = 21)
# [5] = Overall population, 150 mg (n = 12)
# [6] = Overall population, 200 mg (n = 13)
# [7] = Overall population, Total (n = 25)
smiles,measurement,setting,value
CCN1CCN(Cc2ccc(Nc3ncc(F)c(-c4cc(F)c5nc(C)n(C(C)C)c5c4)n3)nc2)CC1 [abemaciclib],Incidence of embolism,breast cancer,less than 5%
same,Confirmed responder,[1]; 150 mg cohort,1
same,Patients achieving PR,[1]; 1 patient in each dose cohort,2 patients
same,Best overall response: Complete response (CR),[1]; [2],0 n (%)
same,Best overall response: Partial response (PR),[1]; [2],1 (10.0) n (%)
same,Best overall response: Progressive disease (PD),[1]; [2],2 (20.0) n (%)
same,Disease control rate (CR+PR+SD),[1]; [2],7 (70.0) n (%)
same,Overall response rate (CR+PR),[1]; [2],1 (10.0) n (%)
same,Best overall response: Complete response (CR),[1]; [3],0 n (%)
same,Best overall response: Partial response (PR),[1]; [3],1 (9.1) n (%)
same,Best overall response: Progressive disease (PD),[1]; [3],1 (9.1) n (%)
same,Disease control rate (CR+PR+SD),[1]; [3],9 (81.8) n (%)
same,Overall response rate (CR+PR),[1]; [3],1 (9.1) n (%)
same,Best overall response: Complete response (CR),[1]; [4],0 n (%)
same,Best overall response: Partial response (PR),[1]; [4],2 (9.5) n (%)
same,Best overall response: Progressive disease (PD),[1]; [4],3 (14.3) n (%)
same,Disease control rate (CR+PR+SD),[1]; [4],16 (76.2) n (%)
same,Overall response rate (CR+PR),[1]; [4],2 (9.5) n (%)
same,Best overall response: Complete response (CR),[1]; [5],0 n (%)
same,Best overall response: Partial response (PR),[1]; [5],1 (8.3) n (%)
same,Best overall response: Progressive disease (PD),[1]; [5],2 (16.7) n (%)
same,Disease control rate (CR+PR+SD),[1]; [5],8 (66.7) n (%)
same,Overall response rate (CR+PR),[1]; [5],1 (8.3) n (%)
same,Best overall response: Complete response (CR),[1]; [6],0 n (%)
same,Best overall response: Partial response (PR),[1]; [6],1 (7.7) n (%)
same,Best overall response: Progressive disease (PD),[1]; [6],2 (15.4) n (%)
same,Disease control rate (CR+PR+SD),[1]; [6],9 (69.2) n (%)
same,Overall response rate (CR+PR),[1]; [6],1 (7.7) n (%)
same,Best overall response: Complete response (CR),[1]; [7],0 n (%)
same,Best overall response: Partial response (PR),[1]; [7],2 (8.0) n (%)
same,Best overall response: Progressive disease (PD),[1]; [7],4 (16.0) n (%)
same,Disease control rate (CR+PR+SD),[1]; [7],17 (68.0) n (%)
same,Overall response rate (CR+PR),[1]; [7],2 (8.0) n (%)
same,Complete response (CR),[1]; all treated patients (n = 25),No complete response was observed; also recorded: no CR was observed
same,Disease control rate (DCR),[1]; all treated patients (n = 25),68%
same,Patients achieving partial response (PR),[1]; all treated patients (n = 25),8%
